Columns and labels:
[1] = target: T1, human A2B AR (Homo sapiens, UniProt P29275); assay: Radioligand binding assay at human A2B AR vs. [^3H]PSB-603; details: for Ki: CHO cell membranes, n = 2 (n = 3 where marked a), read-out: Ki ± SEM, A2B vs. [^3H]PSB-603; for inhibition at 1 µM: at 1,000 nM; for inhibition at 1 µM / inhibition at 0.1 µM: read-out: % inhibition of radioligand binding at indicated concentration, A2B vs. [^3H]PSB-603; for inhibition at 0.1 µM: at 100 nM
T1 construct: expressed in transfected cells; host or cells: CHO cells
T1 sequence (P29275 1-332): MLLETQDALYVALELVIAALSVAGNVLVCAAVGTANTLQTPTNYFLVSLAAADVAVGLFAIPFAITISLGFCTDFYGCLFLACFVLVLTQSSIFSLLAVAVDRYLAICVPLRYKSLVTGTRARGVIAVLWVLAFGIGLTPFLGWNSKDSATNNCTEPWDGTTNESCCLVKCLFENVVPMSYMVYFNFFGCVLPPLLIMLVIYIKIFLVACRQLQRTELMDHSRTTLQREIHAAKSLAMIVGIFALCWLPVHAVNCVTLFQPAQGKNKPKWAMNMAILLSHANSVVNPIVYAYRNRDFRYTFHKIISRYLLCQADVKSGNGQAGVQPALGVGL
Procedure, shortened: (§1)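 Affinity values derive from radioligand displacement on membrane preparations: native rat tissue (cortex for A1, striatum for A2A) or CHO cells recombinantly expressing human A1, A2A, A2B or A3 ARs.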

[2] = target: T2, human A1 AR (Homo sapiens, UniProt P30542); assay: Radioligand binding assay at human A1 AR vs. [^3H]CCPA; details: for Ki: human (h), CHO cell membranes, n = 3; for selectivity for the human A1 vs. the human A2A AR: ratio of Ki values, human receptors
T2 construct: expressed in transfected cells; host or cells: CHO cells
T2 sequence (P30542 1-326): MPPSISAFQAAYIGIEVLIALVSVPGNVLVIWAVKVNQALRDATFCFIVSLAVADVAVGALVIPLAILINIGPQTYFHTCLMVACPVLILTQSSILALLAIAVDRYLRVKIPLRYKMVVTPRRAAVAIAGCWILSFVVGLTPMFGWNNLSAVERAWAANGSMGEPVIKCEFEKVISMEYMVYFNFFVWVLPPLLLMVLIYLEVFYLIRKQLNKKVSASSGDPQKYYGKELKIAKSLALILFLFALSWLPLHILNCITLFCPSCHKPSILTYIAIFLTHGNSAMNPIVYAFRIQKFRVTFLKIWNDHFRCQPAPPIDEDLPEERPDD
Procedure, shortened: as §1

[3] = target: T3, rat A1 AR (Rattus norvegicus, UniProt P25099); assay: Radioligand binding assay at rat A1 AR (rat brain cortex) vs. [^3H]CCPA; details: rat (r); rat brain cortex; n = 3
T3 construct: A1 ARs of rat brain cortical membrane; from tissue; host or cells: rat brain cortex membranes
T3 sequence (P25099 1-326): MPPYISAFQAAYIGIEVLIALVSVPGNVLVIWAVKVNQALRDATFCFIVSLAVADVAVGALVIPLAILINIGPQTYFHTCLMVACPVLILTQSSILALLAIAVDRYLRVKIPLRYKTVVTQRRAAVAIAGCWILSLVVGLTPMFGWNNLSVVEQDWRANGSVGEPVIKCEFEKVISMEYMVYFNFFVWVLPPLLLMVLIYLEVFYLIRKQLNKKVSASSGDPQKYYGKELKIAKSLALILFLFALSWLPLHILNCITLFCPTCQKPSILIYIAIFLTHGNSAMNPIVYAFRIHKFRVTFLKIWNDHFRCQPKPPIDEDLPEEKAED
Procedure, shortened: as §1

[4] = target: T4, human A3 AR (Homo sapiens, UniProt P0DMS8); assay: Radioligand binding assay at human A3 AR vs. [^3H]PSB-11; details: for Ki: CHO cell membranes, n = 2 (n = 3 where marked a), read-out: Ki ± SEM, A3 vs. [^3H]PSB-11; for inhibition at 10 µM: at 10,000 nM, read-out: % inhibition of radioligand binding at indicated concentration, A3 vs. [^3H]PSB-11
T4 construct: expressed in transfected cells; host or cells: CHO cells
T4 sequence (P0DMS8 1-318): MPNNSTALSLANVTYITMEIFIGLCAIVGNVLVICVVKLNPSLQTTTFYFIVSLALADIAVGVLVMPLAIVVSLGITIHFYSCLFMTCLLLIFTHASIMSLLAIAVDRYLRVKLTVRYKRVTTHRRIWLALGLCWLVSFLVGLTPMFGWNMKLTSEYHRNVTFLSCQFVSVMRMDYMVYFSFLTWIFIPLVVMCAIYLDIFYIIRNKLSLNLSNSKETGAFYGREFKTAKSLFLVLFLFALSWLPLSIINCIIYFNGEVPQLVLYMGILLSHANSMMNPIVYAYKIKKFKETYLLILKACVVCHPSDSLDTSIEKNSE
Procedure, shortened: as §1

[5] = target: T5, rat A2A AR (Rattus norvegicus, UniProt P30543); assay: Radioligand binding assay at rat A2A AR (rat brain striatum) vs. [^3H]MSX-2; details: rat (r); for Ki: rat brain striatum, n = 3, read-out: Ki ± SEM, A2A vs. [^3H]MSX-2; for % inhibition of radioligand binding at indicated concentration, A2A vs. [^3H]MSX-2: at 1,000 nM
T5 construct: A2A ARs of rat brain striatal membrane preparations; from tissue; host or cells: rat brain striatum membranes
Procedure, shortened: as §1

T5 sequence (P30543 whole entry): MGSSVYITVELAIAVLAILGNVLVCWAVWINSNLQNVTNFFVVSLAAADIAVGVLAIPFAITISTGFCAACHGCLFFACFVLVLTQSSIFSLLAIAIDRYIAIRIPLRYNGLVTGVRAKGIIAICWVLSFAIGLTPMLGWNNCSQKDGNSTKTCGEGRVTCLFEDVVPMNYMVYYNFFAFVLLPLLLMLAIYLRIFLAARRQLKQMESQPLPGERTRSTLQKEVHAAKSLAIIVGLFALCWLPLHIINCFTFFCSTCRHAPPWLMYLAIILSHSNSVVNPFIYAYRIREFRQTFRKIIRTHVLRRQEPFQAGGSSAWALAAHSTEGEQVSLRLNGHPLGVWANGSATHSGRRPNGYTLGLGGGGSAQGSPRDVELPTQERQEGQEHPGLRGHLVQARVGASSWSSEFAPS

Row | SMILES | Ki [1] [nM] | inhibition at 1 µM [1] [%] | Ki [2] [nM] | selectivity for the human A1 vs. the human A2A AR [2] [fold] | Ki [3] [nM] | Ki [4] [nM] | inhibition at 10 µM [4] [%] | Ki [5] [nM] | % inhibition of radioligand binding at indicated concentration, A2A vs. [^3H]MSX-2 [5] [%] | inhibition at 0.1 µM [1] [%]
1 | CCn1c(=O)c2c(nc3n2CCN(Cc2ccccc2Br)C3)n(C)c1=O [Compound 14a, 8-(2-bromobenzyl)-3-ethyl-1-methyl-6,7,8,9-tetrahydropyrazino[2,1-f]purine-2,4(1H,3H)-dione] | > 1000 | 18 | 41.7 ± 8.3 | > 10 | 123 ± 34 | > 10000 | 36 | 408 ± 90 | – | –
2 | CCn1c(=O)c2c(nc3n2CCN(Cc2cccc(Br)c2)C3)n(C)c1=O [Compound 14b, 8-(3-bromobenzyl)-3-ethyl-1-methyl-6,7,8,9-tetrahydropyrazino[2,1-f]purine-2,4(1H,3H)-dione] | > 1000 | 9 | 70.7 ± 12.3 | – | 28.8 ± 1.5 | > 10000 | 39 | 1140 | – | –
3 | CCn1c(=O)c2c(nc3n2CCN(Cc2ccc(Br)cc2)C3)n(C)c1=O [Compound 14c, 8-(4-bromobenzyl)-3-ethyl-1-methyl-6,7,8,9-tetrahydropyrazino[2,1-f]purine-2,4(1H,3H)-dione] | > 1000 | 1 | 1350 | – | 156 ± 21 | 9390 | – | > 1000 | 35 | –
4 | CCn1c(=O)c2c(nc3n2CCN(Cc2ccccc2C(F)(F)F)C3)n(C)c1=O [Compound 14d, 3-ethyl-1-methyl-8-(2-(trifluoromethyl)benzyl)-6,7,8,9-tetrahydropyrazino[2,1-f]purine-2,4(1H,3H)-dione] | > 1000 | 2 | 244 ± 74 | – | 114 ± 15 | 8760 | – | > 1000 | 20 | –
5 | CCn1c(=O)c2c(nc3n2CCN(Cc2cccc(C(F)(F)F)c2)C3)n(C)c1=O [Compound 14e, 3-ethyl-1-methyl-8-(3-(trifluoromethyl)benzyl)-6,7,8,9-tetrahydropyrazino[2,1-f]purine-2,4(1H,3H)-dione] | > 100 | – | 156 ± 49 | – | 49.1 ± 6.2 | > 10000 | 38 | 708 ± 25 | – | 2
6 | CCn1c(=O)c2c(nc3n2CCN(Cc2cccc(F)c2)C3)n(C)c1=O [Compound 14g, 3-ethyl-8-(3-fluorobenzyl)-1-methyl-6,7,8,9-tetrahydropyrazino[2,1-f]purine-2,4(1H,3H)-dione] | > 100 | – | 85.3 ± 5.5 | – | 59.4 ± 7.7 | > 10000 | 24 | > 1000 | 18 | 15
7 | CCn1c(=O)c2c(nc3n2CCN(Cc2cc(Cl)ccc2Cl)C3)n(C)c1=O [Compound 14j, 8-(2,5-dichlorobenzyl)-3-ethyl-1-dimethyl-6,7,8,9-tetrahydropyrazino[2,1-f]purine-2,4(1H,3H)-dione] | > 1000 | 2 | 391 ± 77 | – | 36.9 ± 6.1 | > 10000 | 42 | 617 ± 114 | – | –
8 | CCn1c(=O)c2c(nc3n2CCN(Cc2cccc(C(F)(F)F)c2F)C3)n(C)c1=O [Compound 14l, 3-ethyl-8-(2-fluoro-3-(trifluoromethyl)benzyl)-1-methyl-6,7,8,9-tetrahydropyrazino[2,1-f]purine-2,4(1H,3H)-dione] | > 1000 | 8 | 495 ± 80 | – | 236 ± 57 | > 10000 | 29 | 667 ± 68 | – | –
9 | CCn1c(=O)c2c(nc3n2CCN(Cc2cc(C(F)(F)F)ccc2Cl)C3)n(C)c1=O [Compound 14m, 8-(2-chloro-5-(trifluoromethyl)benzyl)-3-ethyl-1-methyl-6,7,8,9-tetrahydropyrazino[2,1-f]purine-2,4(1H,3H)-dione] | > 1000 | 3 | 55.9 ± 8.3 | 16 | 76.2 ± 9 | > 10000 | 35 | 592 ± 28 | – | –
10 | CCn1c(=O)c2c(nc3n2CCN(Cc2cc(Br)ccc2F)C3)n(C)c1=O [Compound 14o, 8-(5-bromo-2-fluorobenzyl)-3-ethyl-1-methyl-6,7,8,9-tetrahydropyrazino[2,1-f]purine-2,4(1H,3H)-dione] | > 1000 | 11 | 116 ± 27 | – | 36 ± 18.4 | > 10000 | 39 | 880 ± 174 | – | –
11 | CCn1c(=O)c2c(nc3n2CCN(Cc2cccc(C(F)(F)F)c2)C3)n(CC)c1=O [Compound 15g, 1,3-diethyl-8-(3-(trifluoromethyl)benzyl)-6,7,8,9-tetrahydropyrazino[2,1-f]purine-2,4(1H,3H)-dione] | > 1000 | 27 | 84.8 ± 2.4 | – | 30 ± 5.7 | > 10000 | 36 | 1030 | – | –
12 | CCn1c(=O)c2c(nc3n2CCN(Cc2cc(C(F)(F)F)ccc2F)C3)n(CC)c1=O [Compound 15j, 1,3-diethyl-8-(2-fluoro-5-(trifluoromethyl)benzyl)-6,7,8,9-tetrahydropyrazino[2,1-f]purine-2,4(1H,3H)-dione] | > 1000 | 27 | 39.4 ± 7.4 | – | 124 ± 21 | > 10000 | 25 | 600 ± 54 | – | –
13 | CCn1c(=O)c2c(nc3n2CCN(Cc2ccc(F)c(Br)c2)C3)n(CC)c1=O [Compound 15k, 8-(3-bromo-4-fluorobenzyl)-1,3-diethyl-6,7,8,9-tetrahydropyrazino[2,1-f]purine-2,4(1H,3H)-dione] | > 1000 | 34 | 362 ± 98 | – | 270 ± 60 | 7190 | – | > 1000 | 30 | –
14 | CCn1c(=O)c2c(nc3n2CCN(Cc2cc(Br)ccc2F)C3)n(CC)c1=O [Compound 15l, 8-(5-bromo-2-fluorobenzyl)-1,3-diethyl-6,7,8,9-tetrahydropyrazino[2,1-f]purine-2,4(1H,3H)-dione] | > 1000 | 24 | 75.4 ± 16.1 | – | 33.5 ± 5.6 | 13300 | – | 756 ± 46 | – | –
15 | CCn1c(=O)c2c(nc3n2CCN(Cc2cc(Cl)cc(Cl)c2)C3)n(CC)c1=O [Compound 15m, 8-(3,5-dichlorobenzyl)-1,3-diethyl-6,7,8,9-tetrahydropyrazino[2,1-f]purine-2,4(1H,3H)-dione] | > 1000 | 23 | 207 ± 48 | – | 89.6 ± 21.4 | 4720 | – | 2200 | – | –

From paper PMC6028563, “Probing Substituents in the 1- and 3-Position: Tetrahydropyrazino-Annelated Water-Soluble Xanthine Derivatives as Multi-Target Drugs With Potent Adenosine Receptor Antagonistic Activity” (Frontiers in Chemistry, 2018)
